Here are results for 5 molecules from US20220089636A1, “TETRAZOLONE SUBSTITUTED STEROIDS AND USE THEREOF” (Beijing Xuanyi PharmaSciences Co., Ltd., priority 2019, published 2022).

Where two headings read alike, the source gives them in different places.

A word on the EC50: it is the concentration needed to bring the measured effect to its halfway point. As a reminder, the Cmax is the maximum level reached in the sampled fluid or tissue. Broadly, the Tmax is the time at which the peak concentration occurs. Usually Emax stands for the greatest response seen or fitted, relative to the assay's reference.

For one data set, the target named is T1, α1β2γ2 GABAA receptor (Homo sapiens, UniProt P14867+P47870).
T1 construct: expressed in transfected cells
T1 sequence (P14867 28-456): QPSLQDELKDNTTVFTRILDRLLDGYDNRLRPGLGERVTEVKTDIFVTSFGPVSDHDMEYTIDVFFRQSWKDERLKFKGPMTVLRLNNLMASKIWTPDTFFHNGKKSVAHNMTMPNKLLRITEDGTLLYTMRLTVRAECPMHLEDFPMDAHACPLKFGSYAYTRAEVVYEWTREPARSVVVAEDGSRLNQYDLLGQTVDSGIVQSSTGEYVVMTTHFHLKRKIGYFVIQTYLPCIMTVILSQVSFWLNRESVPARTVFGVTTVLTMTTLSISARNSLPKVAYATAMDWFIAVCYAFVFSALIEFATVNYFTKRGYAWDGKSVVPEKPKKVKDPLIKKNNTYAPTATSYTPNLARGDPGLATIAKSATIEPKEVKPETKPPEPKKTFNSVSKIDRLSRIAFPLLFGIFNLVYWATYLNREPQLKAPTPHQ
T1 sequence (P47870 25-512 limits assumed): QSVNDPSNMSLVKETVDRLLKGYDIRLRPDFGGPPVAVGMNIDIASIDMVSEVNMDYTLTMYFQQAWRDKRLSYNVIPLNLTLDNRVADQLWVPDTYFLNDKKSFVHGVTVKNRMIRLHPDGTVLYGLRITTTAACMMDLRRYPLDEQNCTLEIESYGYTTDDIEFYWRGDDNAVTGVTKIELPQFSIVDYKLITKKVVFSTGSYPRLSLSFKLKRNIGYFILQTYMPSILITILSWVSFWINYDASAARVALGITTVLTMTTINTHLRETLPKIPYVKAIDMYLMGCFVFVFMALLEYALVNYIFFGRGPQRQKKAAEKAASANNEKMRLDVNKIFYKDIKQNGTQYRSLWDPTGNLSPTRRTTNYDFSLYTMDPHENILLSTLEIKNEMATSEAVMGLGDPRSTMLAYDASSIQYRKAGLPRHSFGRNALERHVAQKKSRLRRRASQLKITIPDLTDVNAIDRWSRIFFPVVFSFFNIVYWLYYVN
T1 sequence (P18507 40-475 partner): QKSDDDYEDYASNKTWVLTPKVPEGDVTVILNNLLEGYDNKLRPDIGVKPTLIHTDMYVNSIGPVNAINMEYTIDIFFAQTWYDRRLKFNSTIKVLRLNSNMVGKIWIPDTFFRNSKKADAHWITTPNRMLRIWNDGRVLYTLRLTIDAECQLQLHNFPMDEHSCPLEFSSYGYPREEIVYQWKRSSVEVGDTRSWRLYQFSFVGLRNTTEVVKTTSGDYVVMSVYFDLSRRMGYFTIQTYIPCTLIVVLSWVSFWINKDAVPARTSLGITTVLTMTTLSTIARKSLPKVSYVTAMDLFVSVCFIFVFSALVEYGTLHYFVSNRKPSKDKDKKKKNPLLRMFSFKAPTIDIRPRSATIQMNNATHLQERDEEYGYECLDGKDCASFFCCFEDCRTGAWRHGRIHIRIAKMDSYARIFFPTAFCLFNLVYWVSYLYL
Put plainly: Patch clamp electrophysiology assay of recombinant α1β2γ2 GABAA receptors (potentiation of 2 μM GABA-evoked Cl- current). It counts as cell-based. The following applies: HEK293T cells stably transfected with α1β2γ2 GABAA; for EC50: whole cell, 2 μM GABA, -80 mV. On the procedure:
Cellular electrophysiology is used to measure the pharmacological properties of GABAA receptor modulators in heterologous cell systems. Each compound is tested for its ability to affect GABA mediated currents at a submaximal agonist dose (GABA EC20=2 μM). HEK293T cells are stably transfected with the α1β2γ2 subunits of the GABAA receptor. Flasks or dishes of HEK293 GABAA cells were maintained in the medium (DMEM, 11% (v/v) heat inactivated FBS, 100 or 200 μg/ml G418, 40 μg/ml Hygromycin B, 80 μg/ml Zeocin) and incubated at 37° C. in a humidified incubator with 5% CO2. 12 to 24 hours prior to electrophysiological recordings, the cells were plated on glass cover slips placed in culture dishes and maintained under the same incubation and media conditions. The number of cells being plated on the cover slip should reach a confluence rate at which majority of the cells are single.
For the electrophysiological recordings in the study the following external and internal solutions were used (Table 1):
HEKA EPC 10 USB patch clamp amplifier (from HEKA Elektronik, Germany) was used in the whole cell recording. A cover slip with plenty of single HEK293T-GABAA cells on the surface was removed and placed into a continuously perfused (approximately 1-2 ml/minute) recording chamber mounted on an inverted microscope. GABAA Cl^− current was recorded from single cell using standard whole cell recording techniques. 2 μM GABA was used to evoke GABAA Cl^− current (2 μM of GABA was the EC10-EC20 value of agonist GABA obtained internally on the stable GABAA cells used in this study). After achieving break-in (whole-cell) configuration, the cell was voltage clamped at a holding potential of −80 mV. Only stable cells meeting the recording parameters (membrane resistance Rm>500 MΩ, access resistance (Ra)<15 MΩ, leak current<100 pA in 90% of the recording time) were used. 2 μM GABA was applied to the cell to induce stable Cl^− current first as control for about 2 seconds, test compounds (i.e., compounds of formula (AI), (I), (AII), and (II), or any subgenera thereof) were followed to be applied to the cells for 3 min, then 2 μM GABA was applied to observe the potentiation effect on the GABAA Cl^− current. Different doses of test compound from low to high were applied to the same cell when the cell was stable. A cell was considered stable when current size evoked by 2 μM GABA applied to the cell from time to time was similar. To minimize the possible desensitation of GABAA Cl^− current, duration between applications of test articles was set to 180 seconds.
Test compounds were dissolved in DMSO to form stock solutions (10 mM). Test compounds were diluted to 0.003, 0.01, 0.03, 0.1, 0.3, 1, 3 and 10 μM in bath solution. AU concentrations of test articles were tested on each cell. Data were analyzed using software provided by HEKA, Microsoft Excel and Graphpad Prism (Table 2).
(In general: Patch clamp records ionic current or voltage across a cell membrane.)

Data set [1] in a line: Mouse PK study (i.v. and p.o.). As to conditions: plasma, male CD1 mice; for half-life: read-out: T1/2 (hr) i.v. (converted); for Vd: read-out: Vss; for bioavailability: 5 mg/kg p.o. vs 1 mg/kg i.v. The data set is classed as in vivo. How it is done: Test compounds were dosed to male CD1 mice at 5 mg/kg by oral gavage (p.o.) or 1 mg/kg by intravenous injection (i.v.). Blood samples were taken at 0.083, 0.25, 0.5, 1.0, 3.0, 6.0 and 24 hours post i.v. dosing and at 0.25, 0.5, 1.0, 3.0, 6.0 and 24 hours post p.o. dosing. The plasma concentration of compounds were determined by HPLC.

For another data set, the system named is PTZ-treated mice. Put plainly: Acute PTZ (pentylenetetrazol-induced seizure) assay. It counts as in vivo, Male CD-1 mice. As to conditions: 3 mg/kg oral gavage 60 min prior to PTZ 120 mg/kg s.c.; observed 30 min. On the procedure: The anticonvulsant effect of test compounds were assessed in the pentylenetetazol-induced seizure assay in mice similar to methods described in Giardina & Gasior (2009) Curr Protoc Pharmacol., Chapter 5. Male CD-1 mice were housed in groups of five under controlled conditions (temperature of 22±2° C. and 12:12 light-dark cycle, lights on at 8:00 am) and water and food were available ad libitum. The mice were housed for 1 week prior to behavioral testing, at which time they weighed 25-35 g. Pentylenetetrazol (PTZ, Sigma) was dissolved in sterile 0.9% saline at a concentration of 12 mg/mL concentration for subcutaneous administration. Test compounds were formulated and administered via oral gavage at 60 minutes prior to PTZ injection. AU solutions were made fresh and were given in a volume of 10 ml/kg body weight.
Mice were acclimated to the test room for at least 30 min before compound administration. Mice were randomized into at least four test groups (vehicle and at least three doses of the test compound) with 10 mice per group. […] Following the drug pretreatment time, the mice were injected s.c. with PTZ (120 mg/kg). Immediately following the PTZ injection, mice were individually placed into observation chambers (25×15×15 cm) and a three-channel timer was started. Each mouse was continuously observed for 30 min and the following behaviors were recorded by observers blinded to the treatments: 1) latency to clonic convulsions that persist for 3 sec and followed by an absence of righting reflex 2) latency to tonic convulsions, characterized by the rigid extension of all four limbs that exceeded a 90 degree angle with the body 3) latency to death 4) number of clonic and tonic convulsions. Data are presented as mean±S.E.M and one-way analysis of variance with Dunnetfs or Bonferroni's post-hoc test was used to detect significant differences in latency and number between the vehicle and dose group, p values<0.05 were regarded as statistically significant.

Where [2] appears, read: iv, 1 mg/kg i.v., read-out: AUClast (hr*ng/mL) i.v.
[3] abbreviates: po, 5 mg/kg p.o., read-out: AUClast (hr*ng/mL) p.o.

As to `Cn1nnn(CC(=O)[C@H]2CC[C@H]3[C@@H]4CC[C@@H]5C[C@](C)(O)CC[C@@H]5[C@H]4CC[C@]23C)c1=O` [Example 2, 1-(2-((3R,5R,8R,9R,10S,13S,14S,17S)-3-hydroxy-3,13-dimethylhexadecahydro-1H-cyclopenta[a]phenanthren-17-yl)-2-oxoethyl)-4-methyl-1,4-dihydro-5H-tetrazol-5-one], the EC50 on α1β2γ2 GABAA receptor stood at 110 nM. In data set [1] (iv, 1 mg/kg i.v.), the clearance is 10.7 mL/min/kg, the half-life was 1.46 h and the Vd came out at 1.16 L/kg. For the same molecule, the AUC(0-t) in data set [1] (setting [2]) stood at 1480 ng·h/mL. In data set [1] (po, 5 mg/kg p.o.), the Cmax is 1380 ng/mL and the Tmax worked out at 1 h. The bioavailability in data set [1] (po) was found to be 66.3%. In data set [1] (setting [3]), the AUC(0-t) came to 4900 ng·h/mL. In the data set on PTZ-treated mice, the “Clonic Seizure Latency (sec) (Mean)” value was 1085.4 ± 184.6 s, the “Clonic Seizure Number (Mean)” value is listed as 0.7 ± 0.2, the “Mortality (%)” value amounted to 0.0% and the “Onset of death (sec) (Mean)” value is 1800 + 0.0 sec. In the data set with PTZ-treated mice, the “Tonic Seizure Latency (sec) (Mean)” value is given as 1800 + 0.0 sec and the “Tonic Seizure Number (Mean)” value is 0.0 + 0.0.
Turning to `C[C@@]1(O)CC[C@H]2[C@H](CC[C@@H]3[C@@H]2CC[C@]2(C)[C@@H](C(=O)Cn4nnn(-c5ccccc5)c4=O)CC[C@@H]32)C1` [Example 10, 1-(2-((3R,5R,8R,9R,10S,13S,14S,17S)-3-hydroxy-3,13-dimethylhexadecahydro-1H-cyclopenta[a]phenanthren-17-yl)-2-oxoethyl)-4-phenyl-1,4-dihydro-5H-tetrazol-5-one], on α1β2γ2 GABAA receptor, the EC50 was found to be 27 nM. In data set [1] (iv, 1 mg/kg i.v.), the clearance was 9 mL/min/kg, the half-life was 4.22 h and the Vd came to 2.16 L/kg. In data set [1] (setting [2]), the AUC(0-t) turned out to be 1840 ng·h/mL. Besides, in data set [1] (po, 5 mg/kg p.o.), the peak level (Cmax) was 491 ng/mL and the Tmax stood at 3 h. For the same molecule, the bioavailability in data set [1] (po) worked out at 60.5%. For the same molecule, the AUC(0-t) in data set [1] (setting [3]) amounted to 5510 ng·h/mL. Besides, in the data set on PTZ-treated mice, the “Clonic Seizure Latency (sec) (Mean)” value was 1485 + 210.2 sec, the “Clonic Seizure Number (Mean)” value was found to be 0.3 ± 0.2, the “Mortality (%)” value is given as 0.0% and the “Onset of death (sec) (Mean)” value was 1800 + 0.0 sec. Moreover, in the data set with PTZ-treated mice, the “Tonic Seizure Latency (sec) (Mean)” value was 1800 + 0.0 sec and the “Tonic Seizure Number (Mean)” value is listed as 0.0 + 0.0.
As to `C[C@@]1(O)CC[C@H]2[C@H](CC[C@@H]3[C@@H]2CC[C@]2(C)[C@@H](C(=O)Cn4nnn(-c5ccc(F)cc5)c4=O)CC[C@@H]32)C1` [Example 11, 1-(4-fluorophenyl)-4-(2-((3R,5R,8R,9R,10S,13S,14S,17S)-3-hydroxy-3,13-dimethylhexadecahydro-1H-cyclopenta[a]phenanthren-17-yl)-2-oxoethyl)-1,4-dihydro-5H-tetrazol-5-one], the EC50 at α1β2γ2 GABAA receptor stood at 44 nM. Moreover, the Emax on α1β2γ2 GABAA receptor (HEK-293T, potentiation of 2 μM GABA current) amounted to 795%. In data set [1] (iv, 1 mg/kg i.v.), the clearance is 13.5 mL/min/kg, the half-life was 3.9 h and the Vd was determined as 2.42 L/kg. The AUC(0-t) in data set [1] (setting [2]) was found to be 1230 ng·h/mL. Also, in data set [1] (po, 5 mg/kg p.o.), the Cmax came out at 274 ng/mL and the Tmax is 1 h. In addition, the bioavailability in data set [1] (po) stood at 52.3%. For the same molecule, the AUC(0-t) in data set [1] (setting [3]) is 3200 ng·h/mL. For the same molecule, in the data set with PTZ-treated mice, the “Clonic Seizure Latency (sec) (Mean)” value amounted to 717.4 ± 238.5 s, the “Clonic Seizure Number (Mean)” value was found to be 0.8 ± 0.2, the “Mortality (%)” value was 0.0% and the “Onset of death (sec) (Mean)” value is listed as 1800 + 0.0 sec. Also, in the data set on PTZ-treated mice, the “Tonic Seizure Latency (sec) (Mean)” value is reported as 1800 + 0.0 sec and the “Tonic Seizure Number (Mean)” value is reported as 0.0 + 0.0.
As for `C[C@@]1(O)CC[C@H]2[C@H](CC[C@@H]3[C@@H]2CC[C@]2(C)[C@@H](C(=O)Cn4nnn(-c5ccc(C#N)cc5)c4=O)CC[C@@H]32)C1` [Example 13, 4-(4-(2-((3R,5R,8R,9R,10S,13S,14S,17S)-3-hydroxy-3,13-dimethylhexadecahydro-1H-cyclopenta[a]phenanthren-17-yl)-2-oxoethyl)-5-oxo-4,5-dihydro-1H-tetrazol-1-yl)benzonitrile], at α1β2γ2 GABAA receptor, the EC50 was 13 nM. Also, in data set [1] (iv, 1 mg/kg i.v.), the clearance is 5.67 mL/min/kg, the half-life is 8.03 h and the Vd is 2.94 L/kg. The AUC(0-t) in data set [1] (setting [2]) came to 2640 ng·h/mL. In data set [1] (po, 5 mg/kg p.o.), the Cmax worked out at 479 ng/mL and the Tmax came to 1 h. The bioavailability in data set [1] (po) is 41.5%. Also, the AUC(0-t) in data set [1] (setting [3]) worked out at 5760 ng·h/mL. In the data set with PTZ-treated mice, the “Clonic Seizure Latency (sec) (Mean)” value is 1012 + 263.6 sec, the “Clonic Seizure Number (Mean)” value was 0.7 ± 0.3, the “Mortality (%)” value came to 0.0% and the “Onset of death (sec) (Mean)” value is 1800 + 0.0 sec. In the data set on PTZ-treated mice, the “Tonic Seizure Latency (sec) (Mean)” value is reported as 1800 + 0.0 sec and the “Tonic Seizure Number (Mean)” value was 0.0 + 0.0.
`C[C@@]1(O)CC[C@H]2[C@H](CC[C@@H]3[C@@H]2CC[C@]2(C)[C@@H](C(=O)Cn4nnn(-c5ccncc5)c4=O)CC[C@@H]32)C1` [Example 17, 1-(2-((3R,5R,8R,9R,10S,13S,14S,17S)-3-hydroxy-3,13-dimethylhexadecahydro-1H-cyclopenta[a]phenanthren-17-yl)-2-oxoethyl)-4-(pyridin-4-yl)-1,4-dihydro-5H-tetrazol-5-one]: the EC50 at α1β2γ2 GABAA receptor turned out to be 38 nM. Also, in data set [1] (iv, 1 mg/kg i.v.), the clearance was 43.5 mL/min/kg, the half-life is 0.84 h and the Vd stood at 2.12 L/kg. In addition, in data set [1] (setting [2]), the AUC(0-t) was determined as 381 ng·h/mL. For the same molecule, in data set [1] (po, 5 mg/kg p.o.), the maximum concentration (Cmax) was 227 ng/mL and the Tmax turned out to be 3 h. Moreover, in data set [1] (po), the bioavailability was 101%. Also, the AUC(0-t) in data set [1] (setting [3]) turned out to be 1930 ng·h/mL. Also, in the data set with PTZ-treated mice, the “Clonic Seizure Latency (sec) (Mean)” value was 1441 + 184.6 sec, the “Clonic Seizure Number (Mean)” value was 0.3 ± 0.2, the “Mortality (%)” value was determined as 0.0% and the “Onset of death (sec) (Mean)” value is listed as 1800 + 0.0 sec. Moreover, in the data set on PTZ-treated mice, the “Tonic Seizure Latency (sec) (Mean)” value was 1800 + 0.0 sec and the “Tonic Seizure Number (Mean)” value is on record as 0.0 + 0.0.
